# Legend:
# Plasmodium falciparum [1] = assay: Antiplasmodial activity against Plasmodium falciparum K1 assessed as reduction in parasite growth incubated for 72 hr by LDH assay; format: functional, organism-based; conditions: K1, 72 h
# Plasmodium falciparum [2] = assay: Antiplasmodial activity against Plasmodium falciparum FCR3 assessed as reduction in parasite growth incubated for 72 hr by LDH assay; format: functional, organism-based; conditions: FCR3, 72 h
# [3] = Cytotoxicity against human MRC5 cells assessed as reduction in cell viability after 24 hrs by MTT assay; format: toxicity, cell-based
# Plasmodium berghei = assay: Antiplasmodial activity against plasmodium berghei N strain infected in ICR(CD1) mouse assessed as inhibition of parasitemia at 30 mg/kg, ip administered for 3 days relative to control; format: functional; conditions: 72 h, time 3 day
# [4] = Selectivity index, ratio of CC50 for human MRC5 cells to IC50 for plasmodium falciparum K1; format: toxicity; conditions: read-out: Ratio CC50/IC50
# [5] = Selectivity index, ratio of CC50 for human MRC5 cells to IC50 for plasmodium falciparum FCR3; format: toxicity; conditions: read-out: Ratio CC50/IC50
# [6] = Inhibition of HDAC in Plasmodium falciparum infected in human erythrocytes incubated for 2 hr in presence of sodium [14C]acetate by radiometry assay; format: cell-based; conditions: Erythrocyte
compound,measurement,setting,value
CC1(C)NC(=O)[C@H](CCCCCC(=O)[C@@H](O)CO)NC(=O)[C@H]2CCCN2C(=O)[C@H](Cc2ccccc2)NC1=O,IC50,Plasmodium falciparum [1],0.83 µM
same,IC50,Plasmodium falciparum [2],0.89 µM
same,CC50 at 24 h,[3],14.7 µM
same,inhibition in vivo at 30 mg/kg,Plasmodium berghei,41%
same,selectivity ratio,[4],18.4
same,selectivity ratio,[5],16.3
C[C@@H]1CC[C@H]2[C@@H](C)C(=O)O[C@@H]3O[C@@]4(C)CC[C@@H]1[C@]32OO4 [ARTEMISININ],IC50,Plasmodium falciparum [1],0.022 µM
same,IC50,Plasmodium falciparum [2],0.026 µM
same,CC50 at 24 h,[3],> 25 µM
same,inhibition in vivo at 30 mg/kg,Plasmodium berghei,99.7%
same,selectivity ratio,[4],> 1140
same,selectivity ratio,[5],> 961
CCC(=O)CCCCC[C@@H]1NC(=O)[C@H]2CCCCN2C(=O)[C@H]([C@@H](C)CC)NC(=O)[C@H](Cc2cn(OC)c3ccccc23)NC1=O [APICIDIN],IC50,[6],0.0007 µM
CC1(C)NC(=O)[C@H](CCCCC[C@@H](O)[C@@H](O)CO)NC(=O)[C@H]2CCCN2C(=O)[C@H](Cc2ccccc2)NC1=O,IC50,Plasmodium falciparum [1],12.5 µM
same,IC50,Plasmodium falciparum [2],17.1 µM
same,CC50 at 24 h,[3],6.8 µM
same,inhibition in vivo at 30 mg/kg,Plasmodium berghei,18.3%
same,selectivity ratio,[4],0.5
same,selectivity ratio,[5],0.4

# Source: ChEMBL document CHEMBL5126655, “Koshidacins A and B, Antiplasmodial Cyclic Tetrapeptides from the Okinawan Fungus Pochonia boninensis FKR-0564” (J Nat Prod, 2022)
